Data as given in BindingDB's records for patent US11180503 (ELI LILLY AND COMPANY, 2021).

Molecular target: Dual specificity calcium/calmodulin-dependent 3',5'-cyclic nucleotide phosphodiesterase 1B (Homo sapiens, UniProt Q01064)
Assay: Ca2+-Calmodulin Dependent PDE Enzyme Assays
Method: PDE1B, PDE1A, and PDE1C are cloned and purified following standard protein generation procedures. The assay buffer is prepared to give a final concentration in the assay of 50 mM Tris-HCl, 50 mM MgCl2, 4 mM CaCl2, 0.1% Bovine serum albumin and 6 U/ml Calmodulin in water, at pH 7.5.

Chain of Dual specificity calcium/calmodulin-dependent 3',5'-cyclic nucleotide phosphodiesterase 1B (Q01064 whole entry): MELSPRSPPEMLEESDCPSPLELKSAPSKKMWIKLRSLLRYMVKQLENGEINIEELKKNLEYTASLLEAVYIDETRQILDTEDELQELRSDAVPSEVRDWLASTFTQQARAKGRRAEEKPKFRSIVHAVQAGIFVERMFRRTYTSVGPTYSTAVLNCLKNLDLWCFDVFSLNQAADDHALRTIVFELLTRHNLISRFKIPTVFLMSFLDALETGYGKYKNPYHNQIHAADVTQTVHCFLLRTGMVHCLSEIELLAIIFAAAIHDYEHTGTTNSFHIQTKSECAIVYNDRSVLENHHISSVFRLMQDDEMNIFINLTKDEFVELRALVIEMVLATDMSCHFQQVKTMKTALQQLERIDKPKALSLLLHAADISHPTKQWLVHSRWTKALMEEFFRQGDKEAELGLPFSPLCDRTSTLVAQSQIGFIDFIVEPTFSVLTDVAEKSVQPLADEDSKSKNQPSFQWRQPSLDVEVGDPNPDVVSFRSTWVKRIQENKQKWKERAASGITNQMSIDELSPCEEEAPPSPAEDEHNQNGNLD

`CCCCn1c(=O)c2nnc(C3(C4CC4)CC3)n2c2ncc(CC)cc21` [US11180503, Example 9] was tested, and the IC50 was 419 pM.
`CCCCn1c(=O)c2nnc(C3(C4CC4)CC3)n2c2ncc(CO)cc21` [US11180503, Example 11] gave an IC50 of 928 pM.
